# Results taken from ChEMBL document CHEMBL3745645, “Synthesis, in vitro antitumor activity, dihydrofolate reductase inhibition, DNA intercalation and structure-activity relationship studies of 1,3,5-triazine analogues” (Bioorg Med Chem Lett, 2016).
# Calls of active or inactive are those of the source. The calls are words filed in the database; no cut-off is given here.
# Assays:
# Type in all cases: functional
# [1] = Cytotoxicity against human Caki1 cells at 10 uM after 48 hrs by SRB assay; settings: CAKI-1, 48 h, read-out: GI
# [2] = Cytotoxicity against human RXF393 cells at 10 uM after 48 hrs by SRB assay; settings: RXF 393, 48 h, read-out: GI
# [3] = (§1) Cytotoxicity against human TK10 cells at 10 uM after 48 hrs by SRB assay; settings: TK-10, 48 h, read-out: GI
# [4] = Cytotoxicity against human PC3 cells at 10 uM after 48 hrs by SRB assay; settings: PC-3, 48 h, read-out: GI
# MDA-MB-231 = assay: Cytotoxicity against human MDA-MB-231 cells at 10 uM after 48 hrs by SRB assay; settings: MDA-MB-231, 48 h, read-out: GI
# [5] = (§2) Cytotoxicity against human BT549 cells at 10 uM after 48 hrs by SRB assay; settings: BT-549, 48 h, read-out: GI
# MDA-MB-468 = assay: Cytotoxicity against human MDA-MB-468 cells at 10 uM after 48 hrs by SRB assay; settings: MDA-MB-468, 48 h, read-out: GI
# CCRF-CEM = assay: Cytotoxicity against human CCRF-CEM cells after 48 hrs by SRB assay; settings: for GI50 / TGI: pooled result: one value given for 6 cell lines, strains, targets or settings
# [6] = Cytotoxicity against human COLO205 cells after 48 hrs by SRB assay; settings: COLO 205, 48 h, pooled result: one value given for 7 cell lines, strains, targets or settings
# [7] = Cytotoxicity against human LOXIMVI cells after 48 hrs by SRB assay; settings: LOX IMVI, pooled result: one value given for 9 cell lines, strains, targets or settings
# [8] = Cytotoxicity against human IGROV1 cells after 48 hrs by SRB assay; settings: IGROV-1, 48 h, pooled result: one value given for 7 cell lines, strains, targets or settings
# [9] = Cytotoxicity against human PC3 cells after 48 hrs by SRB assay; settings: PC-3, 48 h; for GI50 / TGI: pooled result: one value given for 2 cell lines, strains, targets or settings
# K562 = assay: Cytotoxicity against human K562 cells at 10 uM after 48 hrs by SRB assay; settings: K562, 48 h, read-out: GI
# [10] = (§3) Cytotoxicity against human RPMI8226 cells at 10 uM after 48 hrs by SRB assay; settings: RPMI-8226, 48 h, read-out: GI
# NCI-H226 = assay: Cytotoxicity against human NCI-H226 cells at 10 uM after 48 hrs by SRB assay; settings: NCI-H226, 48 h, read-out: GI
# NCI-H23 = assay: Cytotoxicity against human NCI-H23 cells at 10 uM after 48 hrs by SRB assay; settings: NCI-H23, 48 h, read-out: GI
# NCI-H460 = assay: Cytotoxicity against human NCI-H460 cells at 10 uM after 48 hrs by SRB assay; settings: NCI-H460, 48 h, read-out: GI
# [11] = Cytotoxicity against human COLO205 cells at 10 uM after 48 hrs by SRB assay; settings: COLO 205, 48 h, read-out: GI
# HCC 2998 = assay: (§4) Cytotoxicity against human HCC2998 cells at 10 uM after 48 hrs by SRB assay
# [12] = Cytotoxicity against human HCT15 cells at 10 uM after 48 hrs by SRB assay; settings: HCT-15, 48 h, read-out: GI
# HT-29 = assay: Cytotoxicity against human HT-29 cells at 10 uM after 48 hrs by SRB assay; settings: HT-29, 48 h, read-out: GI
# [13] = Cytotoxicity against human SW620 cells at 10 uM after 48 hrs by SRB assay; settings: SW-620, 48 h, read-out: GI
# [14] = Cytotoxicity against human SF295 cells at 10 uM after 48 hrs by SRB assay; settings: SF-295, 48 h, read-out: GI
# [15] = Cytotoxicity against human SNB75 cells at 10 uM after 48 hrs by SRB assay; settings: SNB-75, 48 h, read-out: GI
# [16] = Cytotoxicity against human LOXIMVI cells at 10 uM after 48 hrs by SRB assay; settings: LOX IMVI, read-out: GI
# MDA-MB-435 = assay: Cytotoxicity against human MDA-MB-435 cells at 10 uM after 48 hrs by SRB assay; settings: MDA-MB-435, 48 h, read-out: GI
# SK-MEL-28 = assay: Cytotoxicity against human SK-MEL-28 cells at 10 uM after 48 hrs by SRB assay; settings: SK-MEL-28, 48 h, read-out: GI
# UACC-257 = assay: (§5) Cytotoxicity against human UACC257 cells at 10 uM after 48 hrs by SRB assay
# [17] = Cytotoxicity against human UACC62 cells at 10 uM after 48 hrs by SRB assay; settings: UACC-62, 48 h, read-out: GI
# [18] = Cytotoxicity against human IGROV1 cells at 10 uM after 48 hrs by SRB assay; settings: IGROV-1, 48 h, read-out: GI
# [19] = Cytotoxicity against human OVCAR3 cells at 10 uM after 48 hrs by SRB assay; settings: OVCAR-3, 48 h, read-out: GI
# OVCAR-4 = assay: (§6) Cytotoxicity against human OVCAR4 cells at 10 uM after 48 hrs by SRB assay
# OVCAR-5 = assay: Cytotoxicity against human OVCAR5 cells at 10 uM after 48 hrs by SRB assay
# [20] = Cytotoxicity against human OVCAR8 cells at 10 uM after 48 hrs by SRB assay; settings: OVCAR-8, 48 h, read-out: GI
# TK-10 = assay: as §1
# BT-549 = assay: as §2
# HL-60(TB) = assay: Cytotoxicity against human HL-60(TB) cells at 10 uM after 48 hrs by SRB assay
# [21] = as §4; settings: HCC 2998, 48 h, read-out: GI
# [22] = as §5; settings: UACC-257, 48 h, read-out: GI
# [23] = as §6; settings: OVCAR-4, 48 h, read-out: GI
# [24] = Cytotoxicity against human NCI-ADR-RES cells at 10 uM after 48 hrs by SRB assay; settings: read-out: GI
# RPMI-8226 = assay: as §3
smiles,measurement,setting,value
Cc1nc2ccc(Nc3nc(Cl)nc(Nc4ccc(F)cc4)n3)cc2n1Cc1ccccc1,inhibition of growth at 10 µM,[1],13.1%
same,inhibition of growth at 10 µM,[2],15.4%
same,inhibition of growth at 10 µM,[3],7.64%
same,inhibition of growth at 10 µM,[4],19.2%
same,inhibition of growth at 10 µM,MDA-MB-231,25.9%
same,inhibition of growth at 10 µM,[5],39.8%
same,inhibition of growth at 10 µM,MDA-MB-468,30.3%
same,LC50,CCRF-CEM,> 100 µM
same,GI50,CCRF-CEM,3.34 µM
same,TGI,CCRF-CEM,8.68 µM
same,GI50,[6],4.91 µM
same,LC50,[6],54.6 µM
same,TGI,[6],18.1 µM
same,GI50,[7],5.92 µM
same,LC50,[7],53.9 µM
same,TGI,[7],18.4 µM
same,GI50,[8],8.1 µM
same,LC50 (concentration killing 50% of cells),[8],78.8 µM
same,TGI,[8],29.8 µM
same,LC50,[9],52.5 µM
same,GI50,[9],8.27 µM
same,TGI,[9],27.7 µM
same,inhibition of growth at 10 µM,K562,63.1%
same,inhibition of growth at 10 µM,[10],87.5%
same,inhibition of growth at 10 µM,NCI-H226,26.8%
same,inhibition of growth at 10 µM,NCI-H23,11.8%
same,inhibition of growth at 10 µM,NCI-H460,20.1%
same,inhibition of growth at 10 µM,[11],8.82%
same,growth inhibition (GI),HCC 2998,inactive
same,inhibition of growth at 10 µM,[12],44.2%
same,inhibition of growth at 10 µM,HT-29,15.8%
same,inhibition of growth at 10 µM,[13],17.2%
same,inhibition of growth at 10 µM,[14],21.8%
same,inhibition of growth at 10 µM,[15],4.24%
same,inhibition of growth at 10 µM,[16],64.8%
same,inhibition of growth at 10 µM,MDA-MB-435,11.2%
same,inhibition of growth at 10 µM,SK-MEL-28,8.45%
same,growth inhibition (GI),UACC-257,inactive
same,inhibition of growth at 10 µM,[17],48.6%
same,inhibition of growth at 10 µM,[18],33.3%
same,inhibition of growth at 10 µM,[19],5.09%
same,growth inhibition (GI),OVCAR-4,inactive
same,growth inhibition (GI),OVCAR-5,inactive
same,inhibition of growth at 10 µM,[20],57.7%
Cc1nc2cc(Nc3nc(Nc4ccc(F)cc4)nc(-c4ccc(Cl)cc4)n3)ccc2n1Cc1ccccc1,inhibition of growth at 10 µM,[1],9.6%
same,inhibition of growth at 10 µM,[2],31.5%
same,growth inhibition (GI),TK-10,inactive
same,inhibition of growth at 10 µM,MDA-MB-231,34%
same,growth inhibition (GI),BT-549,inactive
same,inhibition of growth at 10 µM,MDA-MB-468,25.7%
same,LC50,CCRF-CEM,> 100 µM
same,GI50,CCRF-CEM,3.39 µM
same,TGI,CCRF-CEM,9.55 µM
same,GI50,[6],4.97 µM
same,LC50,[6],> 100 µM
same,TGI,[6],59.8 µM
same,GI50,[7],6.36 µM
same,LC50,[7],80.6 µM
same,TGI,[7],31.7 µM
same,GI50,[8],6.1 µM
same,LC50 (concentration killing 50% of cells),[8],65.4 µM
same,TGI,[8],24.4 µM
same,LC50,[9],> 100 µM
same,GI50,[9],13.5 µM
same,TGI,[9],> 100 µM
same,growth inhibition (GI),HL-60(TB),Active
same,inhibition of growth at 10 µM,K562,66.3%
same,inhibition of growth at 10 µM,[10],99.8%
same,inhibition of growth at 10 µM,NCI-H226,13.5%
same,inhibition of growth at 10 µM,NCI-H460,28.9%
same,inhibition of growth at 10 µM,[11],38.2%
same,inhibition of growth at 10 µM,[21],18.4%
same,inhibition of growth at 10 µM,[12],35.6%
same,inhibition of growth at 10 µM,HT-29,44.2%
same,inhibition of growth at 10 µM,[13],31.9%
same,inhibition of growth at 10 µM,[14],9.63%
same,inhibition of growth at 10 µM,[15],34.8%
same,inhibition of growth at 10 µM,[16],23.4%
same,inhibition of growth at 10 µM,MDA-MB-435,33.8%
same,inhibition of growth at 10 µM,SK-MEL-28,7.37%
same,inhibition of growth at 10 µM,[22],31.1%
same,inhibition of growth at 10 µM,[18],51.3%
same,inhibition of growth at 10 µM,[19],42.7%
same,inhibition of growth at 10 µM,[23],41.4%
same,inhibition of growth at 10 µM,[20],37.2%
same,inhibition of growth at 10 µM,[24],41%
Cc1nc2cc(Nc3nc(Nc4ccc(F)cc4)nc(-c4cccs4)n3)ccc2n1Cc1ccccc1,inhibition of growth at 10 µM,[1],29.8%
same,inhibition of growth at 10 µM,[2],74.1%
same,inhibition of growth at 10 µM,[3],37.3%
same,inhibition of growth at 10 µM,[4],70.6%
same,inhibition of growth at 10 µM,MDA-MB-231,30.9%
same,inhibition of growth at 10 µM,[5],30.5%
same,inhibition of growth at 10 µM,MDA-MB-468,66.8%
same,LC50,CCRF-CEM,> 100 µM
same,GI50,CCRF-CEM,2.59 µM
same,TGI,CCRF-CEM,9.49 µM
same,GI50,[6],3.23 µM
same,LC50,[6],25.3 µM
same,TGI,[6],17 µM
same,GI50,[7],4.72 µM
same,LC50,[7],39 µM
same,TGI,[7],19.7 µM
same,GI50,[8],8.83 µM
same,LC50 (concentration killing 50% of cells),[8],75.7 µM
same,TGI,[8],27.3 µM
same,LC50,[9],> 100 µM
same,GI50,[9],5.2 µM
same,TGI,[9],52.2 µM
same,inhibition of growth at 10 µM,K562,56.9%
same,growth inhibition (GI),RPMI-8226,Active
same,inhibition of growth at 10 µM,NCI-H226,35%
same,inhibition of growth at 10 µM,NCI-H460,60.4%
same,inhibition of growth at 10 µM,[11],43.2%
same,inhibition of growth at 10 µM,[21],27.9%
same,inhibition of growth at 10 µM,[12],69.7%
same,inhibition of growth at 10 µM,HT-29,79.5%
same,inhibition of growth at 10 µM,[13],31.9%
same,inhibition of growth at 10 µM,[14],48.1%
same,inhibition of growth at 10 µM,[15],47.8%
same,inhibition of growth at 10 µM,[16],35.1%
same,inhibition of growth at 10 µM,MDA-MB-435,56.2%
same,inhibition of growth at 10 µM,SK-MEL-28,25.7%
same,inhibition of growth at 10 µM,[22],42.5%
same,inhibition of growth at 10 µM,[17],38.5%
same,inhibition of growth at 10 µM,[18],51.7%
same,inhibition of growth at 10 µM,[19],33.3%
same,inhibition of growth at 10 µM,[23],49%
same,inhibition of growth at 10 µM,[20],63%
same,inhibition of growth at 10 µM,[24],42.7%
